Legend:
[1] = biological target: T1, vitamin D receptor (VDR) (Homo sapiens, UniProt P11473); assay: Competitive binding to vitamin D receptor (Polarscreen VDR competitor assay, fluorescence polarisation)
T1 construct: purchased Invitrogen
T1 sequence (P11473 1-427): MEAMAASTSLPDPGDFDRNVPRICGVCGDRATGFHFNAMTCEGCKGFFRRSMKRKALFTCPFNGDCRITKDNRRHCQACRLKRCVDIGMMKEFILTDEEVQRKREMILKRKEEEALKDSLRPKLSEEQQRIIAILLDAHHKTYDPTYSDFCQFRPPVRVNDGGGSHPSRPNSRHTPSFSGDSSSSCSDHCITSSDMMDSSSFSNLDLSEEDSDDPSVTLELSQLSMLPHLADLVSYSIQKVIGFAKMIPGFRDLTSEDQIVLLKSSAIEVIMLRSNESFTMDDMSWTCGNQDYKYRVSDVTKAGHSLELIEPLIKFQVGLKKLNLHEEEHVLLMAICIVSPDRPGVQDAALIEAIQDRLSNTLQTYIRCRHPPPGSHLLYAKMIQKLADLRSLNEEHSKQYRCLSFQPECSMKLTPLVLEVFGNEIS
Procedure: FIG. 1. […] The values represent the mean of at least two experiments.
Polarised fluorescence was determined in 384-well black plates for 200 ms/well using a Mithras LB 940 device (Berthold Technologies).

[2] = system: MCF-7 cells; assay: 3D cell culture on matrigel (spheroid size), MCF-7; assay type: cell-based, human
Procedure: FIG. 7. MCF-7 cells were shown for 10 days on a matrigel bed until they formed a 3D cellular structure. […] After treatment, the spheroids were stained with DAPI (4′,6-diamino-2-phenylindole) for 1 hour and photographed under an inverted microscope with ultraviolet light. The size of these spheroids was measured and the values were represented as mean±SD in relative units. […] Those cells treated with the carrier were considered as the control value.
For 3D cell culture, a cushion of 200 μl of Matrigel (BD Biosciences) was used in each of the wells of multi-well plates of 24 wells. They were incubated at 37° C. for 20 minutes for their solidification and subsequently the cell suspension (5×10^3 cells per 100 μl volume of medium) was loaded onto the matrigel solidified and another incubation at 37° C. was performed for 30 minutes so that the cells penetrated properly on the matrigel base. 500 μl of DMEM medium were added to each well, and the cells were maintained in culture for 10 days. At the end of this time, the cells were started to be treated with each of the 5 analogues used and 1,25D.

[3] = Calcaemic effects in mice at 0.3 μg/kg; assay type: in vivo
Procedure: FIG. 8. […] 1,25D and the various analogues were injected intraperitoneally every 2 days for 21 days at a dose of 0.3 μg/Kg. After treatment the calcium levels in the serum were evaluated and the values were represented as mean±SD in […].
(§1) Calcium mobilization of analogues was determined in 28 male CD-1 mice (6-8 weeks old). 6 Groups of 4 mice each were established, which mice were intraperitoneally (ip) injected with 0.3 μg/kg weight of each analogue or 1,25D dissolved in sesame oil every two days for 3 weeks. A seventh group of 4 mice treated with the carrier (sesame oil) served as controls. Calcium levels in blood were determined by QuantiChomCalciumAssay Kit (BioAssaySystems, Hayward, Calif., USA). In addition, a dose-response assay was performed to assess the effect of administration of the analogues PG-403 and PG136p and hormone (1,25D) at different doses on calcium levels. This assay was performed in male mice (5 mice per group), and the doses used were: 0.1, 0.5, 1, and 5 μg/kg weight of each analogue or 1,25D, i.p. administered every two days for 21 days. In addition, a control group (mice treated with sesame oil) was used.

[4] = Dose-response assay of serum calcium in mice; assay type: in vivo; settings: for Serum calcium versus controls, analogues: doses 0.1, 0.5, 1 and 5 μg/kg ip every 2 days for 21 days
Procedure: FIG. 9. […] 1,25D (dose of 0.3 μg/kg) and analogues (doses of 0.1, 0.5, 1 and 5 μg/kg) were injected intraperitoneally every 2 days for 21 days. After treatment the calcium levels in the serum were evaluated and the values were represented as mean±SD in […].
as §1

[5] = Body weight of mice in the dose-response assay; assay type: in vivo; settings: mice, 0.1, 0.5, 1 and 5 μg/kg ip every 2 days for 21 days
Procedure: FIG. 10. […] 1,25D (dose of 0.3 μg/kg) and analogues (doses of 0.1, 0.5, 1 and 5 μg/kg) were injected intraperitoneally every 2 days for 21 days. Animals were weighed every two days during treatment. The values were represented as mean±SD in […].
In this experiment, also the weight of the animals was quantified to determine whether there was any modification throughout the treatment.

[6] = system: MCF-7-Luc cells; assay: In vivo anti-tumour activity, MCF-7-Luc tumours in SCID mice; settings: 5 μ/kg ip every 2 days for 28 days, p≦0.05
Procedure: FIG. 12. In this figure the results obtained by treating a group of 32 mice with the analogue PG136 after being injected with MCF-7-Luc cells are shown.
(§2) In order to study the anti-tumour activity of the analogue PG136 in vivo, 32 immunosuppressed CB17-Prkdc^scid 8 weeks old female mice were used, called SCID (PRBB, Barcelona, Spain). These mice were injected subcutaneously with 5×10^6 breast tumour cells MCF-7 and MDA-MB-231 stably transfected with plasmid pcDNA3-Luciferase coding for the gene of the luciferase (called MCF-7-Luc and MDA-MB-231-Luc). Two groups of 8 mice were injected with cells MCF-7-Luc and other 2 groups of 8 mice with MDA-MB-231-Luc cells. Fifteen days after injection, the mice were started to be treated intraperitoneally every 2 days for 28 days with the analogue PG136 at a dose of 5 μ/kg dissolved in sesame oil used as carrier. The control group is treated in the same way and with the same range with sesame oil. Tumour size is determined every seven days once started the treatment using an in vivo imaging system (IVIS, Caliper Life Sciences, Alameda, USA), and the tumour size is calculated using a map of intensities retrieved using the Living Image (Caliper Life Sciences) software. In the case of the 2 groups of mice injected with MDA-MB-231-Luc cells, the experiment continued until day 60 and Kaplan-Meier Survival estimates were made.

[7] = system: MDA-MB-231-Luc cells; assay: In vivo anti-tumour activity, MDA-MB-231-Luc tumours in SCID mice
Excerpt: FIG. 13. In this figure the results obtained by treating a group of 32 mice with the analogue PG136 after being injected with MDA-MB-231-Luc cells are shown.
FIG. 14. The survival rate of mice treated with the analogue PG136 after being injected with MDA-MB-231-Luc cells is shown and compared with control mice.
as §2, with “In the case of the 2 groups of mice injected with MDA-MB-231-Luc cells, the experiment continued until day 60 and Kaplan-Meier Survival estimates were made.” left out

[8] = system: PC-3 cells; assay: MTT proliferation assay, PC-3; settings: 10^−7 M, 48 hours, 100% control cells
Procedure: Proliferation assay in the PC-3 cell line of human prostate adenocarcinoma. […] The values were plotted in the graphs as mean±SD. As proliferation value, 100% was considered the normal growth of PC-3 cells treated with the carrier in the control.
(§3) The cells were cultured in 90-mm plates in essential culture medium DMEM, supplemented with 10% bovine foetal serum free of steroid hormones, 100 U/ml penicillin, 100 μg/ml streptomycin and 2 mM non-essential amino acids (L-glutamine) at 37° C. in a humid atmosphere O2/CO2 (95/5%).
(§4) The first is an indirect method for determining living cells, wherein the yellow water soluble MTT is reduced in mitochondria, thus generating a purple insoluble product (formazan). […] After this time, the culture medium was removed and 500 μl of dimethylsulfoxide (DMSO) was added to each well to solubilise the formazan incorporated by the cells.

[9] = system: MCF-7 cells; assay: MTT proliferation assay, MCF-7; settings: 10^−7 M, 48 hours, 100% control cells
Procedure: Proliferation assay in the MCF-7 cell line of human breast adenocarcinoma. […] The values were plotted in the graphs as mean±SD. As proliferation value, 100% was considered the normal growth of MCF-7 cells treated with the carrier in the control.
as §3
Cell proliferation/toxicity in breast cancer lines was assessed by both incorporation assays of 3-(4,5-dimethylthiazol-2-yl)-2,5-difeniltetrazolium (MTT) bromide and cell culture in three dimensions (3D).
as §4

[10] = system: HaCaT cells; assay: MTT proliferation assay, HaCaT; settings: 10^−7 M, 48 hours, 100% control cells
Procedure: Proliferation assay in the HaCaT cell line of human keratinocytes. […] The values were plotted in the graphs as mean±SD. As proliferation value, 100% was considered the normal growth of HaCaT cells treated with the carrier in the control.
as §3, §4

[11] = system: SKOV-3 cells; assay: MTT proliferation assay, SKOV-3; settings: 10^−7 M, 48 hours, 100% control cells
Procedure: Proliferation assay in the SKOV-3 cell line of human ovary adenocarcinoma. […] The values were plotted in the graphs as mean±SD. As proliferation value, 100% was considered the normal growth of SKOV-3 cells treated with the carrier in the control.
as §3, §4

[12] = system: 24-hydroxylase promoter, CYP24A1 (pCYP24A1-Luc); assay: Transactivation reporter assay (pCYP24A1-Luc) in MCF-7 cells
Procedure: MCF-7 cells were transfected with the reporter vector of 24-hydroxylase (pCYP24A1-Luc vector) for 24 hours. […] The experiments were performed at least twice. The error bars represent the standard deviation (SD).

## C=C1/C(=C\C=C(/CC)c2cccc(CCCCCC(C)(C)O)c2)C[C@@H](O)C[C@@H]1O [PG-136p, (1R,3S,Z)-5-((E)-3-(3-(6-hydroxy-6-methylheptyl)phenyl)pent-2-enyliden)-4-methylenecyclohexane-1,3-diol]
[1]; activity relative to natural hormone 1,25D normalised at 100%
  Binding to VDR % relative to 1,25D (100%): 24%
[1]; competitive displacement, 10^−11 to 10^−5 M
  IC50: 7.11 nM
[2]; 10^−7 M for 7 days
  Three-dimensional growth of MCF-7 spheroids (in words): inhibit the three-dimensional growth, similarly to 1,25D
[2]; 10^−7 M, matrigel spheroids, 100% control cells
  Cell proliferation percentage MCF-7 3D: 69%
[3]; 0.3 μg/Kg ip every 2 days for 21 days
  Hypercalcemia (serum calcium versus control): does not produce hypercalcemia
[3]; ip every two days for 21 days, 0.3 μg/kg (table title prints 0.3 mg/kg)
  Calcaemic activity: blood calcium in percentage over that induced by 1,25D: 0%
[4]; 5 μg/kg weight ip every two days for 21 days
  Serum calcium versus control animals (placebo): did not significantly raise serum calcium
[4]
  Serum calcium versus controls, analogues: does not produce hypercalcemia
[4]; listed as PG136p
  Serum calcium versus controls, analogues: None of the two analogues tested (PG136p and PG-403) induces increased serum calcium
[5]
  Body weight versus control animals, analogues: does not change the body weight
[5]; listed as PG136p
  Body weight versus control animals, analogues: did not significantly affect the body weight
[6]
  Tumour volume versus control group: smaller volume
[7]; 5 μ/kg ip every 2 days for 28 days, p≦0.0001
  Tumour volume versus control group: smaller volume
[7]; until day 60, p=0.042
  Survival rate versus control mice (Kaplan-Meier): higher survival rate
[8]
  Cell proliferation percentage PC-3 2D: 78%
[9]
  Cell proliferation percentage MCF-7 2D: 65%
[10]
  Cell proliferation percentage HaCaT 2D: 68%
[11]
  Cell proliferation percentage SKOV-3 2D: 78%
[12]; Homo sapiens, MCF7, 24 h, read-out: Transcriptional activity EC50
  EC50: 5.97 nM
[12]; MCF-7 cells, pCYP24A1-Luc
  Transcriptional activity % relative to 1,25D (100%): 33%

From patent publication US9663429B2, “Vitamin D analogues of pharmaceutical interest” (UNIVERSIDADE DE SANTIAGO DE COMPOSTELA, priority 2013, dated 2017)
